Test results reported in patent US20040176349A1, “Antibacterial composition” (priority 2001, published 2004).

Key:
enterococci = assay: Checkerboard study, synergy summary of Example 2; type: cell-based, Enterococcus; conditions: in words
Source text: (§1) The aim of the study was to detect any synergy between PFOB and the other antibiotics. For the purposes of the study, synergy was defined in accordance with the FIC (fractional inhibitory concentration) index, as disclosed by Lorian (1991, In “Antibiotics in Laboratory Medicine” 3rd edition, Eds. Williams & Wilkins; esp. p 434-443). In essence, if the combination of test compounds gives at least a 4-fold reduction in the FIC value for each compound, then a synergy may be considered to exist (i.e. FIC of the combination <0.5=synergy; FIC 0.5-2.0=“indifference”; and FIC >2=antagonism).

E. faecalis ATCC 29212 = assay: Checkerboard microdilution MIC with PFOB, Table 2; type: cell-based
Source text: as §1
(§2) In Table 2, results in the checkerboard indicating synergy are hatched, and specific optimum synergistic combinations are boxed.

E. faecalis 5659 (vanA) = assay: Checkerboard microdilution MIC with PFOB, Table 2; type: cell-based
Source text: as §1, §2

E.faecalis 78097 (van B) = assay: Checkerboard microdilution MIC with PFOB, Table 2; type: cell-based
Source text: as §1, §2

E. faecalis ATCC 10541 = assay: Checkerboard microdilution MIC with PFOB, Table 2; type: cell-based
Source text: The aim of the study was to detect any synergy between PFOB and the other antibiotics. For the purposes of the study, synergy was defined in accordance with the FIC (fractional inhibitory concentration) index, as disclosed by Lorian (1991, In “Antibiotics in Laboratory Medicine” 3rd edition, Eds. Williams & Wilkins; esp. p 434-443).

[1] = Enterococcus faecalis, read-out: MIC (alone) of Partner

SMILES: CN[C@H](CC(C)C)C(=O)N[C@H]1C(=O)N[C@@H](CC(N)=O)C(=O)N[C@H]2C(=O)N[C@H]3C(=O)N[C@H](C(=O)N[C@H](C(=O)O)c4cc(O)cc(O)c4-c4cc3ccc4O)[C@H](O)c3ccc(c(Cl)c3)Oc3cc2cc(c3O[C@@H]2O[C@H](CO)[C@@H](O)[C@H](O)[C@H]2O[C@H]2C[C@](C)(N)[C@H](O)[C@H](C)O2)Oc2ccc(cc2Cl)[C@H]1O [Vancomycin, vancomycin]
- synergy with PFOB (enterococci): less marked, but still significant, synergy
- Synergy FIC (E. faecalis ATCC 29212; E. faecalis ATCC 29212, FIC index of PFOB + labelled partner, <0.5 = synergy): 0.31
- MIC of partner antibiotic in the presence of PFOB at 0.5 mg/L (E. faecalis ATCC 29212; E. faecalis ATCC 29212, PFOB 0.5 mg/L): 4 mg/L
- MIC of partner antibiotic in the presence of PFOB at 1 mg/L (E. faecalis ATCC 29212; E. faecalis ATCC 29212, PFOB 1 mg/L): 2 mg/L
- MIC of partner antibiotic in the presence of PFOB at 2 mg/L (E. faecalis ATCC 29212; E. faecalis ATCC 29212, PFOB 2 mg/L): 2 mg/L
- MIC of partner antibiotic in the presence of PFOB at 4 mg/L (E. faecalis ATCC 29212; E. faecalis ATCC 29212, PFOB 4 mg/L): 2 mg/L
- MIC of partner antibiotic in the presence of PFOB at 8 mg/L (E. faecalis ATCC 29212; E. faecalis ATCC 29212, PFOB 8 mg/L): 2 mg/L
- MIC of partner antibiotic in the presence of PFOB at 16 mg/L (E. faecalis ATCC 29212; E. faecalis ATCC 29212, PFOB 16 mg/L): 1 mg/L
- MIC of partner antibiotic in the presence of PFOB at 32 mg/L (E. faecalis ATCC 29212; E. faecalis ATCC 29212, PFOB 32 mg/L): 1 mg/L
- MIC of PFOB & Partner: Partner concentration (E. faecalis ATCC 29212; E. faecalis ATCC 29212, optimum synergistic combination with PFOB, second figure (partner)): 1 mg/L
- MIC (E. faecalis ATCC 29212; Enterococcus faecalis, ATCC29212, read-out: MIC (alone) of Partner): 4 mg/L
- MIC of partner antibiotic in the presence of PFOB at 0.5 mg/L (E. faecalis 5659 (vanA); E. faecalis 5659 (vanA), PFOB 0.5 mg/L): >64 mg/L
- MIC of partner antibiotic in the presence of PFOB at 1 mg/L (E. faecalis 5659 (vanA); E. faecalis 5659 (vanA), PFOB 1 mg/L): >64 mg/L
- MIC of partner antibiotic in the presence of PFOB at 2 mg/L (E. faecalis 5659 (vanA); E. faecalis 5659 (vanA), PFOB 2 mg/L): >64 mg/L
- MIC of partner antibiotic in the presence of PFOB at 4 mg/L (E. faecalis 5659 (vanA); E. faecalis 5659 (vanA), PFOB 4 mg/L): >64 mg/L
- MIC of partner antibiotic in the presence of PFOB at 8 mg/L (E. faecalis 5659 (vanA); E. faecalis 5659 (vanA), PFOB 8 mg/L): >64 mg/L
- MIC of partner antibiotic in the presence of PFOB at 16 mg/L (E. faecalis 5659 (vanA); E. faecalis 5659 (vanA), PFOB 16 mg/L): >64 mg/L
- MIC of partner antibiotic in the presence of PFOB at 32 mg/L (E. faecalis 5659 (vanA); E. faecalis 5659 (vanA), PFOB 32 mg/L): >64 mg/L
- MIC (E. faecalis 5659 (vanA); [1]): > 64 mg/L
- Synergy FIC (E.faecalis 78097 (van B); E.faecalis 78097 (van B), FIC index of PFOB + labelled partner, <0.5 = synergy): 0.375
- MIC of partner antibiotic in the presence of PFOB at 0.5 mg/L (E.faecalis 78097 (van B); E.faecalis 78097 (van B), PFOB 0.5 mg/L): 64 mg/L
- MIC of partner antibiotic in the presence of PFOB at 1 mg/L (E.faecalis 78097 (van B); E.faecalis 78097 (van B), PFOB 1 mg/L): 64 mg/L
- MIC of partner antibiotic in the presence of PFOB at 2 mg/L (E.faecalis 78097 (van B); E.faecalis 78097 (van B), PFOB 2 mg/L): 64 mg/L
- MIC of partner antibiotic in the presence of PFOB at 4 mg/L (E.faecalis 78097 (van B); E.faecalis 78097 (van B), PFOB 4 mg/L): 64 mg/L
- MIC of partner antibiotic in the presence of PFOB at 8 mg/L (E.faecalis 78097 (van B); E.faecalis 78097 (van B), PFOB 8 mg/L): 64 mg/L
- MIC of partner antibiotic in the presence of PFOB at 16 mg/L (E.faecalis 78097 (van B); E.faecalis 78097 (van B), PFOB 16 mg/L): 32 mg/L
- MIC of partner antibiotic in the presence of PFOB at 32 mg/L (E.faecalis 78097 (van B); E.faecalis 78097 (van B), PFOB 32 mg/L): 16 mg/L
- MIC of PFOB & Partner: Partner concentration (E.faecalis 78097 (van B); E.faecalis 78097 (van B), optimum synergistic combination with PFOB, second figure (partner)): 32 mg/L
- MIC (E.faecalis 78097 (van B); [1]): > 64 mg/L
- MIC of partner antibiotic in the presence of PFOB at 0.5 mg/L (E. faecalis ATCC 10541; E. faecalis ATCC 10541, PFOB 0.5 mg/L): 2 mg/L
- MIC of partner antibiotic in the presence of PFOB at 1 mg/L (E. faecalis ATCC 10541; E. faecalis ATCC 10541, PFOB 1 mg/L): 2 mg/L
- MIC of partner antibiotic in the presence of PFOB at 2 mg/L (E. faecalis ATCC 10541; E. faecalis ATCC 10541, PFOB 2 mg/L): 2 mg/L
- MIC of partner antibiotic in the presence of PFOB at 4 mg/L (E. faecalis ATCC 10541; E. faecalis ATCC 10541, PFOB 4 mg/L): 2 mg/L
- MIC of partner antibiotic in the presence of PFOB at 8 mg/L (E. faecalis ATCC 10541; E. faecalis ATCC 10541, PFOB 8 mg/L): 2 mg/L
- MIC of partner antibiotic in the presence of PFOB at 16 mg/L (E. faecalis ATCC 10541; E. faecalis ATCC 10541, PFOB 16 mg/L): 1 mg/L
- MIC of partner antibiotic in the presence of PFOB at 32 mg/L (E. faecalis ATCC 10541; E. faecalis ATCC 10541, PFOB 32 mg/L): 1 mg/L
- MIC (E. faecalis ATCC 10541; Enterococcus faecalis, ATCC10541, read-out: MIC (alone) of Partner): 4 mg/L
